According to patent publication US20070066672A1, “Benzimidazole derivatives and use thereof as peptide deformylase inhibitors” (Arpida A/S, priority 2003, published 2007):
pIC50: −log10 of the molar value.

How the values were obtained:
[1] = biological target: T1, Peptide Deformylase (PDF) (Escherichia coli, UniProt P0A6K3); assay: Bacterial peptide deformylase (PDF) assay, colorimetric cell free, enzyme from E. coli; format: biochemical
T1 construct: made in house
Excerpt: (§1) To find inhibitors of Peptide Deformylase (PDF), a colorimetric cell free assay for measuring the enzymatic activity of PDF has been adapted to the microtiter plate format (96 wells). The assay comprises three components, purified PDF, f-Met-Ala as substrate and TNBS as the detecting agent of primary amino groups. The resulting TNP_NH-Met-Ala sulfite complex can be detected at 420 nm. PDF enzymes, containing Fe^2+ as the native metal, are purified and are stabilized by the addition of tris(2-carboxyethyl)phosphine (TCEP).
(§2) The IC50 value of a compound of the invention as a bacterial PDF inhibitor was determined using the following assay.
(§3) Assay buffer 0.1 M MOPS pH was adjusted to 7.2 with NaOH, containing 0.25 M NaCl, 100 μg/mL catalase and 1 mg/mL BSA.
(§4) E. coli enzyme (2.5 mg/ml) 10 μl+290 μl Assay buffer, 1 μl per ml enzyme mix. S. aureus (15 mg/ml) 10 μl+990 μl Assay buffer, 0.3 μl per ml enzyme mix.
(§5) Substrate mix: 10 mM f-Met-Ala was made up from 200 mM f-Met-Ala in methanol with assay buffer.
(§6) TNBS solution: Freshly dilute 1 M TNBS stock solution diluted 1:10 with water.
(§7) Buffer C: 0.5 M borate buffer adjusted to pH 9.5 with NaOH.
(§8) Buffer D: 0.2 ml of freshly prepared 0.5 M Na2SO3 was mixed with 9.8 mL of 0.5M NaH2PO4.
(§9) Inhibitor solution: 2 mM Sodium 4-(hydroxymercurio)benzoate in assay buffer.
(§10) Compound mix: Compound of formula I dissolved in DMSO in a 10 mg/mL stock solution. Further dilutions were made in DMSO in the concentration range between 0.05 to 100 mM.
(§11) The assay was performed in a 96 Microtiter plate containing test compound. To each well containing test compound mix was added 75 microliter of enzyme mix from E. coli followed by the addition of 25 microliter of substrate mix. The resulting mix was incubated for 30 minutes at room temperature with shaking. TNBS solution (50 microliter/well) was added and the resulting mixture was incubated for 15 minutes under shaking. Buffer C was then added (20 microliter/well). After incubating at room temperature for 15 minutes under shaking, buffer D was added (50 microliter/well). The optical […] was then measured at 420 nm, thereby determining the IC50 value.

[2] = biological target: T2, Peptide Deformylase (PDF) (Staphylococcus aureus, UniProt P68826); assay: Bacterial peptide deformylase (PDF) assay, colorimetric cell free, enzyme from S. aureus; format: biochemical; details: f-Met-Ala substrate, TNBS detection at 420 nm
T2 construct: made in house
T2 sequence (P68826 1-183): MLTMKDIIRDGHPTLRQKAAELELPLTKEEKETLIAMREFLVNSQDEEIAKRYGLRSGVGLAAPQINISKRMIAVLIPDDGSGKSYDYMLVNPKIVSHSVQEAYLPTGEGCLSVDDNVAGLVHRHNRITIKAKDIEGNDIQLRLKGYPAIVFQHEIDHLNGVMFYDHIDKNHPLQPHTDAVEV
Excerpt: as §1, §2, §3, §4, §5, §6, §7, §8, §9, §10, §11
The assay was repeated using enzyme mix from S. aureus.

T1 sequence (P0A6K3 whole entry): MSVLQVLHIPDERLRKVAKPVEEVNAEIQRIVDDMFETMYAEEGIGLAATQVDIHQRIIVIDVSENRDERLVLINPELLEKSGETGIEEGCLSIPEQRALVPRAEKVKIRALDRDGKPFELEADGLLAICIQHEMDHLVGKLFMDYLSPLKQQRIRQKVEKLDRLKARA

Row | SMILES | pIC50 [1] | pIC50 [2]
1 | CCC(NC(=O)CCS)c1nc2cc(C(=O)NCC(=O)OC)ccc2n1C1CC1 (stereo not drawn) [Example 1, ({1-Cyclopropyl-2-[1-(3-mercapto-propionylamino)-propyl]-1H-benzoimidazole-5-carbonyl}-amino)-acetic acid methyl ester] | 4.19 | 4.34
2 | COC(=O)CNC(=O)c1ccc2c(c1)nc(C(Cc1ccccc1)NC(=O)CCS)n2Cc1ccc(Cl)cc1 (stereo not drawn) [Example 2, ({1-(4-Chloro-benzyl)-2-[1-(3-mercapto-propionylamino)-2-phenyl-ethyl]-1H-benzoimidazole-5-carbonyl}-amino)-acetic acid methyl ester] | 4.66 | 5.21
3 | COC(=O)CNC(=O)c1ccc2c(c1)nc(C(CCSC)NC(=O)CCC(=O)O)n2Cc1ccccc1 (stereo not drawn) [Example 3, N-{1-[1-Benzyl-5-(methoxycarbonylmethyl-carbamoyl)-1H-benzoimidazol-2-yl]-3-methylsulfanyl-propyl}-succinamic acid] | 4.10 | 4.50
4 | CCCCn1c(C(Cc2ccccc2)NC(=O)CCC(=O)O)nc2cc(C(=O)NCC(=O)OC)ccc21 (stereo not drawn) [Example 4, N-{1-[1-Butyl-5-(methoxycarbonylmethyl-carbamoyl)-1H-benzoimidazol-2-yl]-2-phenyl-ethyl}-succinamic acid] | 5.55 | 6.00
5 | COC(=O)CNC(=O)c1ccc2c(c1)nc(C(Cc1ccccc1)NC(=O)CCC(=O)O)n2Cc1ccco1 (stereo not drawn) [Example 5, N-{1-[1-Furan-2-ylmethyl-5-(methoxycarbonylmethyl-carbamoyl)-1H-benzoimidazol-2-yl]-2-phenyl-ethyl}-succinamic acid] | 4.89 | 5.80
6 | COC(=O)CNC(=O)c1ccc2c(c1)nc(C(Cc1ccccc1)NC(=O)CCC(=O)O)n2Cc1ccc(Cl)cc1 (stereo not drawn) [Example 6, N-{1-[1-(4-Chloro-benzyl)-5-(methoxycarbonylmethyl-carbamoyl)-1H-benzoimidazol-2-yl]-2-phenyl-ethyl}-succinamic acid] | 5.89 | 7.03
7 | COC(=O)CNC(=O)c1ccc2c(c1)nc(C(CCc1ccccc1)NC(=O)CCC(=O)O)n2C1CC1 (stereo not drawn) [Example 7, N-{1-[1-Cyclopropyl-5-(methoxycarbonylmethyl-carbamoyl)-1H-benzoimidazol-2-yl]-3-phenyl-propyl}-succinamic acid] | 5.59 | 5.57
8 | COC(=O)CNC(=O)c1ccc2c(c1)nc(C(CCc1ccccc1)NC(=O)CCC(=O)O)n2CC1CCCCC1 (stereo not drawn) [Example 8, N-{1-[1-Cyclohexylmethyl-5-(methoxycarbonylmethyl-carbamoyl)-1H-benzoimidazol-2-yl]-3-phenyl-propyl}-succinamic acid] | 4.53 | 4.82
9 | COC(=O)CNC(=O)c1ccc2c(c1)nc(C(CCc1ccccc1)NC(=O)CCC(=O)O)n2Cc1ccccc1Cl (stereo not drawn) [Example 9, N-{1-[1-(2-Chloro-benzyl)-5-(methoxycarbonylmethyl-carbamoyl)-1H-benzoimidazol-2-yl]-3-phenyl-propyl}-succinamic acid] | 4.56 | 4.74
10 | CCC(NC(=O)CCC(=O)O)c1nc2cc(C(=O)NCC(=O)OC)ccc2n1C1CC1 (stereo not drawn) [Example 10, N-{1-[1-Cyclopropyl-5-(methoxycarbonylmethyl-carbamoyl)-1H-benzoimidazol-2-yl]-propyl}-succinamic acid] | 5.25 | 7.64
11 | CCC(NC(=O)CCC(=O)O)c1nc2cc(C(=O)NCC(=O)OC)ccc2n1Cc1ccco1 (stereo not drawn) [Example 11, N-{1-[1-Furan-2-ylmethyl-5-(methoxycarbonylmethyl-carbamoyl)-1H-benzoimidazol-2-yl]-propyl}-succinamic acid] | 5.55 | 5.85
12 | CCC(NC(=O)CCC(=O)O)c1nc2cc(C(=O)NCC(=O)OC)ccc2n1Cc1ccccc1 (stereo not drawn) [Example 12, N-{1-[1-Benzyl-5-(methoxycarbonylmethyl-carbamoyl)-1H-benzoimidazol-2-yl]-propyl}-succinamic acid] | 5.32 | 7.17
13 | COC(=O)CNC(=O)c1ccc2c(c1)nc(C(CC(C)C)NC(=O)CCC(=O)O)n2C1CC1 (stereo not drawn) [Example 13, N-{1-[1-Cyclopropyl-5-(methoxycarbonylmethyl-carbamoyl)-1H-benzoimidazol-2-yl]-3-methyl-butyl}-succinamic acid] | 5.40 | 6.92
14 | CCCCn1c(C(CC(C)C)NC(=O)CCC(=O)O)nc2cc(C(=O)NCC(=O)OC)ccc21 (stereo not drawn) [Example 14, N-{1-[1-Butyl-5-(methoxycarbonylmethyl-carbamoyl)-1H-benzoimidazol-2-yl]-3-methyl-butyl}-succinamic acid] | 5.14 | 5.59
15 | COC(=O)CNC(=O)c1ccc2c(c1)nc(C(CC(C)C)NC(=O)CCC(=O)O)n2Cc1ccccc1 (stereo not drawn) [Example 15, N-{1-[1-Benzyl-5-(methoxycarbonylmethyl-carbamoyl)-1H-benzoimidazol-2-yl]-3-methyl-butyl}-succinamic acid] | 5.48 | 5.40
16 | COC(=O)CNC(=O)c1ccc2c(c1)nc(C(Cc1cccc3ccccc13)NC(=O)CCC(=O)O)n2Cc1ccccc1 (stereo not drawn) [Example 30, N-{1-[1-Benzyl-5-(methoxycarbonylmethyl-carbamoyl)-1H-benzoimidazol-2-yl]-2-naphthalen-1-yl-ethyl}-succinamic acid] | 5.15 | 
17 | COC(=O)CNC(=O)c1ccc2c(c1)nc(C(CC(C)C)NC(=O)CCC(=O)NO)n2C1CC1 (stereo not drawn) [Example 33, ({1-Cyclopropyl-2-[1-(3-hydroxycarbamoyl-propionylamino)-3-methyl-butyl]-1H-benzoimidazole-5-carbonyl}-amino)-acetic acid methyl ester] |  | 6.30
18 | CCCCn1c(C(CC(C)C)NC(=O)CCC(=O)NO)nc2cc(C(=O)NCC(=O)OC)ccc21 (stereo not drawn) [Example 34, ({1-Butyl-2-[1-(3-hydroxycarbamoyl-propionylamino)-3-methyl-butyl]-1H-benzoimidazole-5-carbonyl}-amino)-acetic acid methyl ester] |  | 5.64
19 | COC(=O)CNC(=O)c1ccc2c(c1)nc(C(CC(C)C)NC(=O)CCC(=O)NO)n2Cc1ccccc1 (stereo not drawn) [Example 35, ({1-Benzyl-2-[1-(3-hydroxycarbamoyl-propionylamino)-3-methyl-butyl]-1H-benzoimidazole-5-carbonyl}-amino)-acetic acid methyl ester] |  | 6.09
20 | COC(=O)CNC(=O)c1ccc2c(c1)nc(C(CCSC)NC(=O)CCC(=O)NO)n2C1CC1 (stereo not drawn) [Example 36, ({1-Cyclopropyl-2-[1-(3-hydroxycarbamoyl-propionylamino)-3-methylsulfanyl-propyl]-1H-benzoimidazole-5-carbonyl}-amino)-acetic acid methyl ester] |  | 5.82
21 | COC(=O)CNC(=O)c1ccc2c(c1)nc(C(CCSC)NC(=O)CCC(=O)NO)n2CC1CCCCC1 (stereo not drawn) [Example 37, ({1-Cyclohexylmethyl-2-[1-(3-hydroxycarbamoyl-propionylamino)-3-methylsulfanyl-propyl]-1H-benzoimidazole-5-carbonyl}-amino)-acetic acid methyl ester] | 6.50 | 
22 | COC(=O)CNC(=O)c1ccc2c(c1)nc(C(Cc1ccccc1)NC(=O)CCC(=O)NO)n2Cc1ccco1 (stereo not drawn) [Example 39, ({1-Furan-2-ylmethyl-2-[1-(3-hydroxycarbamoyl-propionylamino)-2-phenyl-ethyl]-1H-benzoimidazole-5-carbonyl}-amino)-acetic acid methyl ester] | 5.82 | 
23 | COC(=O)CNC(=O)c1ccc2c(c1)nc(C(Cc1cccc3ccccc13)NC(=O)CCC(=O)NO)n2CCc1cccs1 (stereo not drawn) [Example 44, {[2-[1-(3-Hydroxycarbamoyl-propionylamino)-2-naphthalen-1-yl-ethyl]-1-(2-thiophen-2-yl-ethyl)-1H-benzoimidazole-5-carbonyl]-amino}-acetic acid methyl ester] | 5.51 | 
24 | CCCCn1c(C(Cc2cccc3ccccc23)NC(=O)CCC(=O)NO)nc2cc(C(=O)NCC(=O)OC)ccc21 (stereo not drawn) [Example 45, ({1-Butyl-2-[1-(3-hydroxycarbamoyl-propionylamino)-2-naphthalen-1-yl-ethyl]-1H-benzoimidazole-5-carbonyl}-amino)-acetic acid methyl ester] | 5.24 | 
